Calls of active or inactive are those of the source. No cut-off for these calls is given here.
Legend:
[1] = system: Leishmania major; assay: Antileishmanial activity against promastigote form of Leishmania major Freidlin assessed as reduction in parasite growth incubated for 72 hrs by alamar blue dye based fluorescence analysis; format: functional, organism-based
[2] = system: Trypanosoma brucei; assay: Antitrypanosomal activity against bloodstream trypomastigote form of Trypanosoma brucei Lister 427 assessed as reduction in parasite growth incubated for 72 hrs by alamar blue dye based fluorescence analysis; format: functional, organism-based; conditions: Lister 427, 72 h
[3] = system: Trypanosoma cruzi; assay: Antitrypanosomal activity against epimastigote form of Trypanosoma cruzi CL Brener assessed as reduction in parasite growth incubated for 72 hrs by alamar blue dye based fluorescence analysis; format: functional, organism-based
[4] = system: Leishmania donovani; assay: Antileishmanial activity against promastigote form of Leishmania donovani assessed as reduction in parasite growth incubated for 72 hrs by alamar blue dye based fluorescence analysis; format: functional, organism-based
[5] = system: HeLa; assay: Cytotoxicity against human HeLa cells incubated for 72 hrs by alamar blue cell viability assay; format: functional, cell-based
[6] = system: THP-1; assay: Cytotoxicity against human THP-1 cells incubated for 72 hrs by alamar blue cell viability assay; format: functional, cell-based; conditions: THP-1, 72 h
[7] = system: Leishmania donovani; assay: Antileishmanial activity against Leishmania donovani amastigotes infected in human THP-1 cells assessed as reduction in parasite growth incubated for 72 hrs by alamar blue dye based fluorescence analysis; format: functional, organism-based; conditions: THP-1, 72 h
[8] = Selectivity ratio of EC50 for antileishmanial activity against Leishmania donovani amastigotes infected in human THP-1 cells to EC50 for cytotoxicity against human THP-1 cells; format: functional
[9] = system: Leishmania donovani; assay: Antileishmanial activity against Leishmania donovani axenic amastigotes assessed as reduction in parasite growth incubated for 72 hrs by alamar blue dye based fluorescence analysis; format: functional, organism-based
[10] = system: Trypanosoma brucei; assay: Induction of morphological change in bloodstream trypomastigote form of Trypanosoma brucei Lister 427 assessed as appearance of swollen cells at EC10 incubated for 48 hrs by DAPI staining based immunofluorescence analysis; format: functional, organism-based
[11] = system: Trypanosoma brucei; assay: Induction of morphological change in bloodstream trypomastigote form of Trypanosoma brucei Lister 427 assessed as reduction in cytokinesis at EC10 incubated for 48 hrs by DAPI staining based immunofluorescence analysis; format: functional, organism-based
[12] = system: Leishmania major; assay: Induction of morphological change in promastigote form of Leishmania major Freidlin assessed as increase in intracellular vesicles at EC10 incubated for 48 hrs by DAPI staining based immunofluorescence analysis; format: functional, organism-based

| SMILES | EC50 [1] | EC50 [2] | EC50 [3] | EC50 [4] | EC50 [5] | EC50 [6] | EC50 [7] | Ratio EC50 [8] | EC50 [9] | Activity [10] | Activity [11] | Activity [12] |
| --- | --- | --- | --- | --- | --- | --- | --- | --- | --- | --- | --- | --- |
| COC(=O)[C@@H]1CCCN1C(=O)Cc1ccccc1 | 12.4 µM | 38 µM | 44.1 µM | 11.7 µM | > 250 µM | – | – | – | – | – | – | – |
| COC(=O)[C@H]1CCCN1C(=O)Cc1ccccc1 | 101 µM | > 200 µM | > 200 µM | 95.2 µM | > 250 µM | – | – | – | – | – | – | – |
| COC(=O)[C@@H]1CCCN1C(=O)[C@H](C)CSC | 5.3 µM | 13.2 µM | 15.6 µM | 2.04 µM | > 250 µM | – | – | – | – | – | – | – |
| COC(=O)[C@@H]1CCCN1C(=O)[C@H](C)CS | 7.29 µM | 15.2 µM | 22.7 µM | 2.81 µM | > 250 µM | – | – | – | – | – | – | – |
| CSC[C@@H](C)C(=O)N1CCC[C@H]1C(=O)O | 11.6 µM | 26.3 µM | 30.2 µM | 8.64 µM | > 250 µM | > 250 µM | 4.21 µM | 50 | 2.14 µM | – | – | – |
| COC(=O)[C@@H]1CCCN1C(=O)CC(C)C | 1.97 µM | 1.95 µM | 14.2 µM | 1.63 µM | > 250 µM | > 250 µM | 2.23 µM | 50 | 0.97 µM | Active | Active | Active |
| COC(=O)[C@@H]1CCCN1C(=O)CCS | 7.02 µM | 20.3 µM | 14.9 µM | 5.77 µM | > 250 µM | – | – | – | – | – | – | – |
| COC(=O)[C@H]1CCCN1C(=O)CCSCc1ccccc1 | 35.7 µM | 4.11 µM | 60.2 µM | 33.9 µM | > 250 µM | – | – | – | – | – | – | – |
| O=C(O)[C@H]1CCCN1C(=O)CCS | 6.06 µM | 16.7 µM | 18.2 µM | 4.59 µM | > 250 µM | – | – | – | – | – | – | – |
| CC(C)(C)C(=O)N1CCC[C@H]1C(=O)O | 20.4 µM | 61.5 µM | 70.9 µM | 19.9 µM | > 250 µM | – | – | – | – | – | – | – |
| COC(=O)[C@H]1CCCN1C(=O)CCSC | 3.1 µM | 5.94 µM | 33.6 µM | 2.68 µM | > 250 µM | – | – | – | – | – | – | – |
| O=C(O)[C@H]1CCCN1C(=O)CCSCc1ccccc1 | 39.6 µM | 5.9 µM | 71.2 µM | 39.8 µM | > 250 µM | – | – | – | – | – | – | – |
| COC(=O)[C@@H]1CCCN1C(=O)CCSC | 2.46 µM | 12.4 µM | 19.5 µM | 2.02 µM | > 250 µM | > 250 µM | 4.67 µM | 50 | 1.86 µM | – | – | – |
| C[C@H](CSCc1ccccc1)C(=O)N1CCC[C@H]1C(=O)O | 16.8 µM | 38.6 µM | 40.1 µM | 10.1 µM | > 250 µM | – | – | – | – | – | – | – |
| COC(=O)[C@@H]1CCCN1C(=O)C(C)(C)C | 14.5 µM | 58.3 µM | 66.4 µM | 17.1 µM | > 250 µM | – | – | – | – | – | – | – |
| CSCCC(=O)N1CCC[C@@H]1C(=O)O | 4.81 µM | 9.7 µM | 39.1 µM | 4.27 µM | > 250 µM | – | – | – | – | – | – | – |
| COC(=O)[C@H]1CCCN1C(=O)C(C)(C)C | 39.9 µM | 96.7 µM | 73.5 µM | 34.7 µM | > 250 µM | – | – | – | – | – | – | – |
| C[C@H](CS)C(=O)N1CCC[C@H]1C(=O)O [CAPTOPRIL] | 12.4 µM | 22.9 µM | – | 9.41 µM | 130 µM | – | – | – | – | – | – | – |

| SMILES | EC50 [1] | EC50 [2] | EC50 [3] | EC50 [4] | EC50 [5] | EC50 [6] | EC50 [7] | Ratio EC50 [8] | EC50 [9] | Activity [10] | Activity [11] | Activity [12] |
| --- | --- | --- | --- | --- | --- | --- | --- | --- | --- | --- | --- | --- |
| CC1CS(=O)(=O)CCN1/N=C/c1ccc([N+](=O)[O-])o1 (stereo not given) [NIFURTIMOX] | – | – | 3.11 µM | – | – | – | – | – | – | – | – | – |
| N=C(N)c1ccc(OCCCCCOc2ccc(C(=N)N)cc2)cc1 [PENTAMIDINE] | – | 0.002 µM | – | – | – | – | – | – | – | – | – | – |
| CC(C)CC(=O)N1CCC[C@H]1C(=O)O | 2.26 µM | 2.46 µM | 17.4 µM | 2.03 µM | > 250 µM | – | – | – | – | – | – | – |
| CCCCCCCCCCCCCCCCOP(=O)([O-])OCC[N+](C)(C)C [MILTEFOSINE] | 5.31 µM | – | – | 5.82 µM | – | > 250 µM | 5.97 µM | – | 2.67 µM | – | – | – |
| COC(=O)[C@H]1CCCN1C(=O)CC(C)C | 2.04 µM | 1.44 µM | 37.1 µM | 1.09 µM | > 250 µM | > 250 µM | 2.05 µM | 50 | 0.87 µM | – | – | – |
| CSCCC(=O)N1CCC[C@H]1C(=O)O | 16.8 µM | 28.2 µM | 35.2 µM | 13.5 µM | > 250 µM | – | – | – | – | – | – | – |
| O=C(O)[C@H]1CCCN1C(=O)Cc1ccccc1 | 104 µM | > 200 µM | > 200 µM | 98.4 µM | > 250 µM | – | – | – | – | – | – | – |
| COC(=O)[C@@H]1CCCN1C(=O)C(C)C | 4.51 µM | 9.85 µM | 53.9 µM | 7.02 µM | > 250 µM | – | – | – | – | – | – | – |
| COC(=O)[C@@H]1CCCN1C(=O)[C@H](C)CSCc1ccccc1 | 8.65 µM | 32.9 µM | 30 µM | 3.98 µM | > 250 µM | – | – | – | – | – | – | – |
| O=C(O)[C@@H]1CCCN1C(=O)CCS | 9.88 µM | 28.4 µM | 20.8 µM | 7.15 µM | > 250 µM | – | – | – | – | – | – | – |
| CC(C)C(=O)N1CCC[C@@H]1C(=O)O | 4.11 µM | 9.9 µM | 59.7 µM | 4.8 µM | > 250 µM | – | – | – | – | – | – | – |
| CC(C)CC(=O)N1CCC[C@@H]1C(=O)O | 2.77 µM | 1.92 µM | 39.6 µM | 1.42 µM | > 250 µM | – | – | – | – | – | – | – |
| COC(=O)[C@H]1CCCN1C(=O)C(C)C | 3.3 µM | 7.52 µM | 54.1 µM | 3.58 µM | > 250 µM | – | – | – | – | – | – | – |
| O=C(O)[C@@H]1CCCN1C(=O)Cc1ccccc1 | 14.5 µM | 40.8 µM | 46.5 µM | 13.8 µM | > 250 µM | – | – | – | – | – | – | – |
| CC(C)C(=O)N1CCC[C@H]1C(=O)O | 5.52 µM | 12.2 µM | 61.5 µM | 8.07 µM | > 250 µM | – | – | – | – | – | – | – |
| CC(C)(C)C(=O)N1CCC[C@@H]1C(=O)O | 48.1 µM | 106 µM | 80.2 µM | 41.2 µM | > 250 µM | – | – | – | – | – | – | – |
| O=C(O)[C@@H]1CCCN1C(=O)CCSCc1ccccc1 | 3.16 µM | 14.8 µM | 19.9 µM | 2.58 µM | 120 µM | – | – | – | – | – | – | – |

From ChEMBL document CHEMBL5584269 (Bioorg Med Chem Lett, 2024)
